Key:
[1] = tested on: Pseudomonas aeruginosa ATCC 27853 biofilm; assay: MBEC assay (biofilm eradication, CFU log reduction); format: cell-based, P. aeruginosa; conditions: 48 h grown biofilm, 20 h treatment, CFU log reduction vs untreated; for minimal effective concentration: Pseudomonas aeruginosa, ATCC27853, read-out: P. aeruginosa MBEC mM with log reduction ≥1
Experimental: (§1) The exact weighed amount was noted and the volume of solvent to reach a 80 mM dilution calculated. Half of the volume was added first, by adding Tween 80. In a second step, the other half of the volume DMSO was added and the closed tube inverted 5-10 times and then vortexed very thoroughly for at least 30 seconds. If after this procedure unsolved material was still visible, the tube was placed in a shaker at 37° C. at 150 rpm for at least 30 minutes. […] For the MBEC assay (method 1.3) the solution needs to be diluted to a final concentration of 2 mM in 0.9% saline solution and then further diluted to 1 mM, 0.5 mM, 0.25 mM and 0.125 mM in saline. Those dilutions were added as treatment to the 96 well plates with the grown biofilm (see method 3).
(§2) Frozen aliquots of Staphylococcus epidermis ATCC 35984 and Pseudomonas aeruginosa ATCC 27853 were used to inoculate 20 mL of Tryptic Soy Broth (TSB) in a 100 mL Erlenmeyer flask at 37° C. and 150 rpm and incubated overnight (Infors). The OD600 of the overnight culture was measured with a spectrophotometer (Evolution™ 201/220 UV-Visible Spectrophotometer, Thermo Fisher Scientific) and diluted to an OD600 of 0.2, which resembles 10^8 CFU/mL. The cell suspension of OD600=0.2 was seeded into a U-bottom-shaped 96 well plates by pipetting 100 μL per well in column 1-11, column 12 was filled with 100 μL medium as sterility control. The 96 well plates were sealed with adhesive polyethylene film for sealing microplates and incubated for 48 h at 37° C. at static conditions. After the biofilm growth phase, 100 μL of treatment solutions (method 1) were added to the vials resulting in treatment concentrations of 1 mM, 0.5 mM, 0.25 mM and 0.125 mM and with the respective concentration of Tween 80 and DMSO each at 0.63%, 0.32%, 0.16% and 0.08%. The same concentration was applied to four different wells of the same bacterial strain, resulting in four replicates for each concentration and strain. The treatment was incubated for 20 h at 37° C. at static conditions. After the treatment the supernatant was carefully removed and the well with the biofilm washed carefully for one time with 200 μL 0.9% saline solution. 200 μL saline solution was added and the biofilm was resuspended thoroughly. When fully homogenized then 20 μL was used for the first dilution in 180 μL 0.9% saline solution, which was prepared in a second plate. This dilution was continued until dilution step 10E−5 and 100 μL of the 10E−4 and 10E−5 dilution plated on a TSA plate. The TSA plates were incubated at 37° C. for 24 h. The colonies on the plates were enumerated, the colony forming units per mL of the dispensed biofilm and averages thereof and the log reduction in comparison with the untreated sample from the same wells plate calculated. Reduction of colony forming units goes hand in hand with the thickness of the biofilm and thus with the number bacteria that are present in the biofilm. Therefore, a significant reduction of colony forming units in the biofilm was defined at the value of log reduction ≥1 or more. This assay was repeated two times in two independent experiments)

[2] = tested on: Staphylococcus epidermis ATCC 35984 biofilm; assay: as above; format: cell-based, S. epidermidis; conditions: 48 h grown biofilm, 20 h treatment, CFU log reduction vs untreated; for minimal effective concentration: read-out: S. epidermidis MBEC mM with log reduction ≥1
Experimental: as §1, §2

[3] = tested on: udder cleft wound; assay: In vivo udder cleft dermatitis test: wound assessment after spray treatment; design: species or system cow; conditions: for Conclusion (effect on udder cleft wound): over 60 days, all cows of the group
Experimental: An example of a biofilm-related disorder is Udder Cleft Dermatitis (UCD), which relates to a chronic wound. In this Example, di-alkyl thiosulfonates, dialkyl thiosulfinates and di-alkyl disulfides were tested for their effect on cows affected by UCD.
Experiments were performed to examine the effect of various sprays containing water (control), a test compound, or a reference compound (CTC spray, which contains chlorotetracycline hydrochloride, and was obtained from Dechra veterinary products).
0.35 mL of the spray was sprayed on an udder cleft wound per treatment. Treatments took place once a day at t=0, at t=3 days and t=6 days. In Table 6, the assessment qualifications that are used in Table 7, are explained.

[4] = tested on: Staphylococcus epidermis ATCC 35984; assay: MIC assay (planktonic growth inhibition, OD600); format: cell-based, S. epidermidis; conditions: 24 h at 37° C.; for IC50 / S. epidermidis MIC50: minimal concentration reducing final OD600 by 50%; for IC50: read-out: S. epidermidis MIC50; for IC90 / S. epidermidis MIC90: minimal concentration reducing final OD600 by 90%; for IC90: read-out: S. epidermidis MIC90
Experimental: as §1
(§3) Frozen aliquots of Staphylococcus epidermis ATCC 35984 and Pseudomonas aeruginosa ATCC 27853 were used to inoculate a tryptic soy agar (TSA) plate and incubated overnight at 37° C. After incubation 3-5 well-isolated colonies with the same morphology were selected from the TSA plate and resuspended in 2 mL 0.9% saline solution with 3-6 glass beads and vortexed. The optical density at 600 nm (OD600) of the bacterial suspension was measured with a spectrophotometer (Evolution™ 201/220 UV-Visible Spectrophotometer, Thermo Fisher Scientific) and diluted to an OD600 of 0.0008, which resembles 10^6 CFU/mL.
(§4) The MIC assay was performed in a flat-bottom 96-microtiter plate. 50 μL of MHB-II was added into columns 2-11, and 100 μL to column 12 for sterility control. 100 μL of the 8 mM test compound solution (method 1) was added to column 1. A two-fold dilution series of the solution in MHB-II was achieved by resuspending 50 μL of the 8 mM solution from column 1 to column 2. This step was repeated until column 10. The respective concentration of Tween 80 and DMSO in column 1 was 2.5%, which is two-fold diluted throughout the plate. 50 μL of the bacterial suspension was added to column 1-11. The microtiter plates were sealed with adhesive polyethylene film for sealing microplates (Diversified Biotech) and incubated for 24 h at 37° C. After incubation the OD was measured at 600 nm with the Varioskan (Thermo Fisher Scientific). […] This assay was repeated three times in three independent experiments.

[5] = tested on: Staphylococcus epidermis ATCC 35984 biofilm; assay: MBIC assay (biofilm inhibition, crystal violet); format: cell-based, S. epidermidis; conditions: 48 h incubation, absorbance 540 nm
Experimental: as §1
(§5) Frozen aliquots of Staphylococcus epidermis ATCC 35984 and Pseudomonas aeruginosa ATCC 27853 were used to inoculate a tryptic soy agar (TSA) plate and were incubated overnight at 37° C. After incubation 3-5 well-isolated colonies with the same morphology were selected from the TSA plate and resuspended in 2 mL 0.9% saline solution with 3-6 glass beads and vortexed. The optical density of the bacterial suspension was measured at 600 nm (OD600) with a spectrophotometer (Evolution™ 201/220 UV-Visible Spectrophotometer, Thermo Fisher Scientific) and diluted to an OD600 of 0.2. The MBIC assay was performed in a 96-microtiter plate. 50 μL of TSB was added into columns 2-11, and 100 μL to column 12 for sterility control. 100 μL of the 8 mM test compound solution (method 1) was added to column 1. A two-fold dilution series of the solution in TSB was achieved by resuspending 50 μL of the 8 mM solution from column 1 in column 2. This step was repeated until column 10. The respective concentration of Tween 80 and DMSO in column 1 is at 2.5%, which is two-fold diluted throughout the plate. 50 μL of the bacterial suspension was added to column 1-11. The microtiter plates were sealed with adhesive polyethylene film for sealing microplates (Diversified Biotech) and incubated for 48 h at 37° C. After incubation the supernatant is carefully removed and the well with the biofilm washed for one time with 100 μL 0.9% saline solution. 100 μL 0.1 M HCl was added and incubated for 1 h at room temperature to fix the biofilm. After incubation the HCl was removed and 100 μL crystal violet (0.1% v/v in water) was added and incubated for 30 min at room temperature. The unbound crystal violet was removed and the wells washed one time with 100 μL demineralized water. 100 μL 30% acetic acid was added and incubated for 1 h at 37° C. and 150 rpm. The solution was resuspended and transferred to a flat-bottom 96-well plate and the absorbance measured at 540 nm with the spectrophotometer. This assay was repeated two times in two independent experiments.

[6] = tested on: Pseudomonas aeruginosa ATCC 27853; assay: MIC assay (planktonic growth inhibition, OD600); format: cell-based, P. aeruginosa; conditions: 24 h at 37° C.; for IC50 / IC90: Pseudomonas aeruginosa, ATCC27853; for IC50 / P. aeruginosa MIC50: minimal concentration reducing final OD600 by 50%; for IC50: read-out: P. aeruginosa MIC50; for IC90 / P. aeruginosa MIC90: minimal concentration reducing final OD600 by 90%; for IC90: read-out: P. aeruginosa MIC90
Experimental: as §1, §3, §4

[7] = tested on: Pseudomonas aeruginosa ATCC 27853 biofilm; assay: MBIC assay (biofilm inhibition, crystal violet); format: cell-based, P. aeruginosa; conditions: 48 h incubation, absorbance 540 nm
Experimental: as §1, §5

Row | Compound | minimal effective concentration [1] | minimal effective concentration [2] | inflammation of the udder cleft wound after treatment ([3]; immediately after the treatment, later infection reduced and wound healed) | Conclusion (effect on udder cleft wound) [3] | IC50 [4] | IC90 [4] | S. epidermidis MBIC90 [5] | IC50 [6] | IC90 [6] | P. aeruginosa MBIC90 [7] | P. aeruginosa MBEC mM with log reduction ≥1 [1] | S. epidermidis MBEC mM with log reduction ≥1 [2] | S. epidermidis MIC50 [4] | S. epidermidis MIC90 [4] | P. aeruginosa MIC50 [6] | P. aeruginosa MIC90 [6]
1 | CCCSSCCC [Di-n-propyl disulfide] | > 4 mM | > 4 mM | fast inflammation reduction | Positive effect | > 4 mM | > 4 mM | 4 mM | > 4 mM | > 4 mM | >4 mM |  |  |  |  |  | 
2 | Clc1ccc(SSc2ccc(Cl)cc2)cc1 [Bis (4-chlorophenyl) disulfide, Bis(4-chlorophenyl) disulfide] | > 1 mM | > 1 mM |  |  | 0.01 mM | 0.03 mM | >4 mM | 0.02 mM | 0.03 mM | >4 mM |  |  |  |  |  | 
3 | c1ccc(SSc2ccccc2)cc1 [Di-phenyl disulfide] | 0.125 mM | > 1 mM |  | No effect | 0.125 mM | > 4 mM |  | 2 mM | > 4 mM |  |  |  |  |  |  | 
4 | CC(C)S[S+]([O-])C(C)C (stereo not drawn) [Di-isopropyl thiosulfinate] |  |  |  |  |  |  | >4 mM |  |  | >4 mM | 0.125 mM | 0.5 mM | 2000 µM | 2000 µM | 2000 µM | 4000 µM
5 | CCCCSSCCCC [Di-n-butyl disulfide] | > 1 mM | > 1 mM |  | No effect | > 4 mM | > 4 mM |  | > 4 mM | > 4 mM |  |  |  |  |  |  | 
6 | COc1ccc(SSc2ccc(OC)cc2)cc1 [Bis (4-methoxyphenyl) disulfide, Bis(4-methoxyphenyl) disulfide] | > 1 mM | > 1 mM |  | No effect | > 4 mM | > 4 mM |  | > 4 mM | > 4 mM |  |  |  |  |  |  | 
7 | Cc1ccc(S[S+]([O-])c2ccc(C)cc2)cc1 (stereo not drawn) [Bis (p-tolyl) thiosulfinate] |  |  |  |  |  |  | >4 mM |  |  | >4 mM | 1 mM | 1 mM | 125 µM | 250 µM | 125 µM | 250 µM
8 | [O-][S+](Sc1ccccc1)c1ccccc1 (stereo not drawn) [Di-phenyl thiosulfinate] |  |  |  | No effect |  |  | >4 mM |  |  | >4 mM | 2 mM | 2 mM | 1000 µM | 1000 µM | 1000 µM | 1000 µM
9 | Cc1ccc(SSc2ccc(C)cc2)cc1 [Di-p-tolyl disulfide] | > 1 mM | > 1 mM |  | No effect | > 4 mM | > 4 mM | >4 mM | > 4 mM | > 4 mM | 4 mM |  |  |  |  |  | 
10 | [O-][S+](Cc1ccccc1)SCc1ccccc1 [D-benzyl thiosulfinate, Di-benzyl thiosulfinate] |  |  |  |  |  |  | 4 mM |  |  | >4 mM | 0.125 mM | 1 mM | 30 µM | 30 µM | 60 µM | 500 µM

From US20240374535A1, “COMPOSITIONS AND METHODS FOR TREATING BIOFILM DISORDERS AND INFECTIONS” (AHV International B.V., priority 2021, published 2024)
